Peptide text beside a SMILES is read from it.
How the values were obtained:
[1] = Water solubility of peptide; type: physicochemical; conditions: three N-terminal residues (KKG) added
Text: In one aspect, the invention includes a peptide composition for targeting either (i) a highly invasive glioma cells (HIGC) subtype of human GBM cells, e.g., the U87R subtype of U87GM cells, or (ii) a brain tumor initiating cell (BTIC) subtype of human GBM cells, as characterized above. The peptide in the composition is 12-20 amino acid residues in length and contains one of the sequences identified as SEQ ID NOS-1-17, or a sequence that is at least 90% homologous with the given sequence. That is, the peptide has the same sequence as one of SEQ ID NOS: 1-17, or a sequence that differs from the given sequence by at most one amino acid residue. The peptide may contain only the given sequence of amino acids, or may contain additional N- and/or C-terminal residues up to a total of 20 residues. Thus, for example, the peptide corresponding to SEQ ID NO: 7, […] (H10), may have this exact sequence, the same sequence but with a single amino acid substitution, addition or deletion at any of the 12 residue positions, or a peptide having a total of up to eight additional residues at one or both of the N- or C-terminals.

U87R xenografts = test: In vivo phage homing, U87R xenografts, anti-M13 immunohistochemistry; parameters: species or system SCID mice; conditions: H10 phage perfused in mice carrying U87R tumors; signal within tumor mass or peritumoral; method uses mannitol pretreatment
Protocol: FIG. 6A illustrates the in vivo homing capability of H10. Invasive U87R or non-invasive U87T cells were grown in the right brain hemisphere of SCID mice. Once tumors were established, mice were anaesthetized and perfused with H10 phage for 10 minutes. Unbound phage was flushed from the system with PBS. Brains were cryosectioned and immunohistochemically stained for M13 phage or human nuclear antigen (hNA).
The ability of the selected phage or their corresponding peptides was examined for their ability to ‘home’ to their respective U87R or BTIC glioma cell targets in vivo, according to their ability to detect glioma cells in an orthotopic xenograft model. In the case of H10, SCID mice carrying U87R or U87T xenografts were injected with the test phage for ten minutes, which was subsequently perfused with PBS to remove any unbound particles.
3×10^4 U87T cells, 3×10^5 U87R cells or 5×10^4 BTICs were injected in a 3 μL volume into one brain hemisphere of a SCID mouse and allowed to grow for 4, 6 or 12 weeks respectively. […]
Serial sections were fixed with cold acetone, and rehydrated through an ethanol gradient. […] Avidin-biotin peroxidase complexes were then formed using the VECTASTAIN Elite ABC kit (Vector Laboratories) and detected by addition of […] […]

p75^NTR in U87R cells = test: Sucrose/iodixanol density gradient fractionation with Western blot for p75NTR; type: cell-based, human; conditions: U87R cells on collagen, treated 2 hours, 10-40% sucrose/iodixanol gradient
Text: White arrows indicate higher molecular weight p75^NTR-containing complexes. Lines underneath the figure indicate the fractions in which common organelles are generally found;
The p75^NTR can be detected differentially in lipid rafts isolated with specific detergents, and must be proteolytically processed to trigger cell migration in glioma cells. Thus, it is probable that p75^NTR is also cleaved within a lipid raft after endocytosis. To determine if H10 may be having an impact on endosomally located p75^NTR, cells were hypertonically lysed (to keep vesicles and organelles at least partially intact) and separated on a 10-40% sucrose/iodixanol gradient from which fractions were individually collected.
Cells were scraped into 1 mL of 0.25M sucrose, 140 mM NaCl, 1 mM EDTA, 20 mM Tris-HCl, pH 8.0, and dounce homogenized until cells were no longer visible by microscopy. Debris was pelleted for 5 min, 800×g and the supernatant was loaded on top of a 10 mL continuous 10-40% gradient, prepared by the dilution of OptiPrep (Sigma, 60% iodixanol) with 0.25M sucrose, 140 mM NaCl, 3 mM EDTA, 60 mM Tris-HCl, pH8.0. Gradients were spun in a swinging bucket rotor at 48000×g for 18 hrs and 0.5 mL fractions were collected. Total protein was precipitated from each fraction by the addition of 2 volumes of −20° C. […]

[2] = system: lipid raft marker GM1 in U87R cells; type: cell-based, human; conditions: cholesterol oxidase, Alexa 555-cholera toxin B subunit, 120 minutes
[3] = system: transferrin or its receptor (markers of clathrin-coated vesicles); test: FITC-transferrin uptake and transferrin receptor gradient fractionation; type: cell-based, human; conditions: U87p75 and U87R cells, 2 hours
Protocol: FIG. 9A are confocal images of p75^NTR transfected glioma cells (U87p75) imaged for uptake of FITC-transferrin.
Cells were lysed, fractioned using an iodixanol gradient, and Western Blot analysis for the transferrin receptor was performed;
Cells were scraped into 1 mL of 0.25M sucrose, 140 mM NaCl, 1 mM EDTA, 20 mM Tris-HCl, pH 8.0, and dounce homogenized until cells were no longer visible by microscopy. Debris was pelleted for 5 min, 800×g and the supernatant was loaded on top of a 10 mL continuous 10-40% gradient, prepared by the dilution of OptiPrep (Sigma, 60% iodixanol) with 0.25M sucrose, 140 mM NaCl, 3 mM EDTA, 60 mM Tris-HCl, pH8.0. Gradients were spun in a swinging bucket rotor at 48000×g for 18 hrs and 0.5 mL fractions were collected. Total protein was precipitated from each fraction by the addition of 2 volumes of −20° C. 20 mM DTT, 15% TCA, storage at −20° C. overnight, followed by centrifugation at 4° C. for 20 minutes. Pellets were resuspended in 20 μL 1M Tris and 20 μL 2× Laemmli buffer. The entire volume was loaded into a single well for SDS-PAGE resolution and western transfer.

[4] = system: U87MG cells transfected with p75^NTR; test: Transwell migration assay, p75NTR-transfected U87MG; type: cell-based, human; conditions: in vitro invasion assay
Protocol: The membranes of 8 μm pore sized transwell inserts (Corning Costar) were coated with brain-like matrix (720 μL of 3 mg/mL collagen I (PureCol); 180 μL of 10×DMEM (Invitrogen); 9 uL of 1 mg/mL human plasma fibronectin (Sigma); 9 uL of 1 mg/mL chondroitin sulfate proteoglycans (Chemicon); 16 μL of 0.15 mg/mL laminin (Chemicon)) on both sides, allowed to dry, then plated with 5×10^4 cells in 100 μL media in the upper chamber and 500 μL media in the lower chamber. Inclusion of collagen was essential to see the inhibitory effect of H10 (FIG. S4). 3×10^10 pfu of test phage were added to the upper chambers containing the cells, which were incubated for 4 hours under normal culture conditions. At the end of the incubation, the media was aspirated and the cells were fixed and stained in 1% crystal violet in 95% ethanol for one minute. Transwells were rinsed in PBS, then cells on the upper membrane surfaces were removed with a cotton swab. Cells which had migrated to the undersurface of the membranes were counted by light microscopy, and the sum of cells in five microscopic fields was recorded for each membrane.

CC[C@H](C)[C@H](NC(=O)[C@H](CO)NC(=O)[C@H](CC(N)=O)NC(=O)[C@@H](NC(=O)CNC(=O)[C@H](CCCCN)NC(=O)[C@@H](N)CCCCN)[C@@H](C)O)C(=O)N[C@@H](Cc1c[nH]c2ccccc12)C(=O)N[C@@H](Cc1ccc(O)cc1)C(=O)N[C@H](C(=O)N[C@@H](C)C(=O)N1CCC[C@H]1C(=O)N[C@@H](Cc1ccc(O)cc1)C(=O)N[C@@H](CCSC)C(=O)N[C@@H](Cc1ccccc1)C(=O)O)[C@@H](C)O [modified H10] (H-KKGTNSIWYTAPYMF-OH; N-terminus and C-terminus assumed)
water solubility relative to H10 peptide [1]: substantially more water soluble

CC[C@H](C)[C@H](NC(=O)[C@H](CO)NC(=O)[C@H](CC(N)=O)NC(=O)[C@@H](N)[C@@H](C)O)C(=O)N[C@@H](Cc1c[nH]c2ccccc12)C(=O)N[C@@H](Cc1ccc(O)cc1)C(=O)N[C@H](C(=O)N[C@@H](C)C(=O)N1CCC[C@H]1C(=O)N[C@@H](Cc1ccc(O)cc1)C(=O)N[C@@H](CCSC)C(=O)N[C@@H](Cc1ccccc1)C(=O)O)[C@@H](C)O [H10] (H-TNSIWYTAPYMF-OH; N-terminus and C-terminus assumed)
crossing of the blood brain barrier (BBB) (U87R xenografts): has the ability to cross the blood brain barrier

cholesterol oxidase
distribution of p75^NTR forms in density gradient fractions (p75^NTR in U87R cells): shift of higher molecular weight forms of p75^NTR into the denser gradient fractions | GM1 localisation [2]: accumulate within the cells, particularly at the plasma membrane | intracellular localization or gradient fractionation of transferrin or its receptor [3]: no effect | cell migration of U87p75 glioma cells [4]: significantly inhibited cell migration
